# From PubChem BioAssay AID1996
# Conditions: buffer; pH 7.4; 200.0 µM
row,Structure (SMILES),solubility kinetic
1,COc1ccc(Cl)cc1NC(=S)N1CCN(S(C)(=O)=O)CC1,> 54.6 µg/mL
2,CCc1nc2sc(C(=O)O)c(N)c2c2c1CCCC2,> 41.5 µg/mL
3,O=S(=O)(NCc1ccccn1)c1ccc2ccccc2c1,36.9 µg/mL
4,O=C(COC(=O)c1ccc[nH]c1=O)NC1CC1,32.3 µg/mL
5,CCC[N+](CC#CCO)(CC#Cc1ccccc1)CCC.[Br-],> 54.6 µg/mL
6,Cc1cccc(-n2ccnc2CN2CCN(C(C)C)C(CCO)C2)c1 (configuration not stated),49.7 µg/mL
7,Cc1ccc(O)c(Nc2ncnc3ccccc23)c1.Cl,4.5 µg/mL
8,CC(C)N1C(=O)C2(OCCCO2)c2cc(Br)ccc21,46.9 µg/mL
9,Cc1ccc(N(C)S(=O)(=O)c2cccc(C(=O)OCC(=O)c3c(N)n(C)c(=O)n(C)c3=O)c2)cc1,8.1 µg/mL
10,O=S(=O)(Nc1ccccn1)c1ccc(Cl)c2ccccc12,1.4 µg/mL
11,CCNc1nc(OC)nc(N(OC)S(=O)(=O)c2ccc(C)cc2)n1,> 53 µg/mL
12,COc1ccc(N2CCCC2=N)c(OC)c1.Cl,> 38.5 µg/mL
13,O=C(CC1NC(=S)NC1=O)c1ccc(Cl)cc1 (configuration not stated),3.2 µg/mL
14,CNCC(=O)Nc1ccc(OC(F)(F)F)cc1.Cl,41.4 µg/mL
15,Cc1ccccc1-n1c(C)c(C#N)c(=O)c(-[n+]2ccccc2)c1[S-],45.5 µg/mL
16,CCOc1ccc(-c2nc[nH]c2[N+](=O)[O-])cc1,1.7 µg/mL
17,CNC(=O)c1[nH]cnc1C(=O)Nc1ccccn1,> 36.8 µg/mL
18,COc1c(Cl)ccc(Cl)c1C(=O)NC(=S)N1CCOCC1,> 52.4 µg/mL
19,COC(CNS(=O)(=O)c1cccc2nonc12)OC,> 43.1 µg/mL
20,CCC(C)(C)c1ccc(Oc2ccc(N)cc2)cc1,4.2 µg/mL
21,N[C@@H](Cc1cc(Br)c(O)c(Br)c1)C(=O)O,> 50.8 µg/mL

row,Structure (SMILES),solubility kinetic
1,Cc1nc2c(ccc3nc(NC(=O)C4CC4)sc32)s1,2.8 µg/mL
2,O=C(Nc1ccc(OC(F)(F)F)cc1)c1cnccn1,11.3 µg/mL
3,Cc1cc(NC(=O)CSCc2ccccc2C)no1,18.3 µg/mL
4,O=c1c2c3c(sc2nc2n1CCC2)CCCC3,33.8 µg/mL
5,COc1cc(/C=C(\C#N)c2nc3ccccc3[nH]2)ccc1O,4.9 µg/mL
6,N#CC1=C(N)Oc2nc[nH]c(=O)c2C1c1cccs1 (configuration not stated),> 40.8 µg/mL
7,CCN(CC)C(=O)COC(=O)C1=NN(c2cc(C)ccc2C)C(=O)CC1,> 53.9 µg/mL
8,Cc1[nH]c(=O)[nH]c(=O)c1/C=C/C(=O)O,> 29.4 µg/mL
9,CCOC(=O)/C=C1/N(C)c2ccccc2C1(C)C,< 0.5 µg/mL
10,Cn1ncc(Br)c1NC(=O)c1ccco1,> 40.5 µg/mL
11,Cc1ccccc1OCCCCn1c(CO)nc2ccccc21,29.2 µg/mL
12,O=C(COC(=O)c1nc(Cl)ccc1Cl)c1ccc[nH]1,31.3 µg/mL
13,C=CCNC(=O)COC(=O)c1nc2nccc(C)n2n1,> 41.3 µg/mL
14,COC(=O)c1ccc(NC(=O)c2ccc3nccnc3c2)cc1,3.5 µg/mL
15,c1ccc(CN2CCOCCOCCOCC2)cc1,> 39.8 µg/mL
16,COc1ccc(NC(=O)N[C@@H](CCSC)C(=O)O)cc1OC,> 49.3 µg/mL
17,O=C(Nc1nc2cc3c(cc2s1)OCO3)C1CC1,< 0.3 µg/mL
18,Cc1cnc(NC(=O)COc2ccc3c(c2)CCC3)s1,1.2 µg/mL
19,Cc1ccc(NC(=O)c2cncc(Br)c2)nc1,28.1 µg/mL
20,CCCCCC1=NN2C(=O)CC(=O)N=C2S1,> 35.9 µg/mL
21,CC(C)(C)NCC(O)CON=C1c2ccccc2-c2ccccc21 (configuration not stated),44.1 µg/mL

row,Structure (SMILES),solubility kinetic
1,COC(=O)C(O)(c1ccc(N(C)C)cc1)C(F)(F)F (configuration not stated),38 µg/mL
2,COc1ccc(C)cc1S(=O)(=O)Nc1ccncc1,> 41.7 µg/mL
3,Nc1nc(SCc2ccccc2)c2[nH]cnc2n1,38.4 µg/mL
4,CCCNc1nc(Cl)nc(NC(C)(C)C)n1,17.1 µg/mL
5,Cc1cccc(Nc2ccc3nonc3c2[N+](=O)[O-])c1C,< 0.2 µg/mL
6,CN1CCC(N(C)C(=S)NCCc2ccccc2)CC1,> 43.7 µg/mL
7,COc1cccc(OP(=O)(Nc2ccccc2)Oc2cccc(OC)c2)c1,< 0.8 µg/mL
8,CC1CCCC(NC(=O)Cn2cc(Br)ccc2=O)C1C (configuration not stated),> 51.2 µg/mL
9,Br.C=CCN1CCc2cccc3c2[C@H]1Cc1ccc(O)c(O)c1-3,27.9 µg/mL
10,O=C(N/N=C/c1ccco1)c1ccc2nc[nH]c2c1,> 38.1 µg/mL
11,Cc1cc(NC(=O)C2CC(=O)N(c3ccccc3C)C2)no1 (configuration not stated),> 44.9 µg/mL
12,CCc1c(C)nc(N2CCN(c3ccc(Cl)cc3)CC2)[nH]c1=O,1.1 µg/mL
13,COc1ccc(-c2nonc2NC(=O)c2ccco2)cc1OC,> 47.3 µg/mL
14,Cc1ccc(C)c(-n2ccnc2SCC(N)=O)c1,> 39.2 µg/mL
15,CCn1cc([N+](=O)[O-])c(=O)c2cc(F)c(N3CCOCC3)cc21,13.5 µg/mL
16,CCCc1cc(=O)oc2c(CN(CC)CC)c(O)c(Cl)cc12,> 48.6 µg/mL
17,CC(C)(C)NC(=S)Nc1cccc(C(F)(F)F)c1,17.1 µg/mL
18,COc1ccc(C(=O)N2C[C@H]3C[C@@H](C2)c2cccc(=O)n2C3)cc1OC,> 53.2 µg/mL
19,Nc1c(C(=O)N2CCOCC2)oc2ccccc12,> 36.9 µg/mL
20,COn1c(-c2ccccc2)c(C=O)c2ccccc21,2.4 µg/mL
21,COc1ccccc1CN(C)C(=O)CN1C(=O)c2ccccc2C1=O,17 µg/mL

# More lines, now with the values ahead:
row,solubility kinetic,Structure (SMILES)
1,43.7 µg/mL,CC(=O)c1cccc(NC(=O)CNC(=O)Cc2ccccc2)c1
2,47.8 µg/mL,Cc1ccccc1CN1CCN(CC(=O)NC(C)c2ccccc2)CC1 (configuration not stated)
3,> 39.8 µg/mL,COc1ccc(CNc2ncnc3ccccc23)cc1
4,38.8 µg/mL,CC(C)c1ccc(OCC(=O)Nc2ccncc2)cc1
5,> 58.3 µg/mL,COc1ccc(NS(=O)(=O)c2ccc(C(=O)N3CCCCCC3)cc2)cc1
6,> 44.4 µg/mL,CC(=O)c1cc(Cl)ccc1OCC(=O)NC1CCCC1
7,1.9 µg/mL,O=C(Cc1ccc(Cl)cc1)NCc1nc(-c2ccccc2)no1
8,24 µg/mL,COc1cccc(/C=C/C(=O)OCC(=O)NC2CC2)c1OC
9,> 26.9 µg/mL,CC(=O)Nc1ccc(C(=O)O)cc1
10,> 42 µg/mL,O=C(NNC(=O)c1ccc2nc[nH]c2c1)c1ccccc1
11,46.4 µg/mL,O=C(NCCN1CCOCC1)c1cccc(Br)c1
12,> 55.9 µg/mL,CC(NC(=O)COC(=O)CN1C(=O)C2CCCCC2C1=O)c1ccccc1 (configuration not stated)
13,40.7 µg/mL,COc1ccc(NC(=O)CN(C)C(=O)CCc2ccccc2)cc1
14,> 49.1 µg/mL,O=C(O)c1ccccc1SCc1csc(-c2ccccc2)n1
15,66.3 µg/mL,Cc1ccc(S(=O)(=O)N2CCC(C(=O)NCc3ccccc3CN3CCCC3)CC2)cc1
16,33.1 µg/mL,Cc1ccc(NC(=O)OCCNC(=O)OC(C)C)cc1
17,> 37 µg/mL,O=C(NCc1ccccc1Cl)c1ccncc1
18,> 48.5 µg/mL,Cc1noc(C)c1C(=O)NCCc1ccc(S(N)(=O)=O)cc1
19,> 49.4 µg/mL,COc1ccc(/C=N/NC(=O)c2cccnc2)c(C(=O)O)c1OC
20,> 52.3 µg/mL,Cc1ccc2cc(S(=O)(=O)NCCCN3CCOCC3)ccc2c1

row,solubility kinetic,Structure (SMILES)
1,5.3 µg/mL,CCC(=O)OCCNc1nc(-c2ccccc2)nc2ccccc12.Cl
2,1.1 µg/mL,COc1ccc(-c2ccc(S(=O)(=O)N3CCCC3)cc2)cc1
3,> 34.2 µg/mL,Cn1cccc1C(=O)NCCc1ccccc1
4,> 50.9 µg/mL,Cc1onc(-c2c(Cl)cccc2Cl)c1C(=O)N1CCCCC1
5,> 51.2 µg/mL,Cc1ccc(C2=NN(CC(=O)NCc3cccs3)C(=O)CC2)cc1
6,> 55.3 µg/mL,CSc1ccccc1C(=O)OCC(=O)NCCN1C(=O)CSC1=O
7,7.8 µg/mL,COc1ccc(CN(C)C(C)C(=O)Nc2cccc3ccccc23)cc1 (configuration not stated)
8,> 46.5 µg/mL,O=C(COC(=O)Cc1ccsc1)Nc1cccc(Cl)c1
9,34.8 µg/mL,COCCNC(=O)CN1CCCCCC1.Cl
10,> 40.1 µg/mL,O=C(OCC(=O)N1CCOCC1)c1cccc(F)c1
11,> 57 µg/mL,CN(CC(=O)Nc1ccc(F)c(F)c1F)C(=O)C1COc2ccccc2O1 (configuration not stated)
12,43.3 µg/mL,O=C(O)CC1(CC(=O)NCc2ccc(-c3cccs3)cc2)CCCCC1
13,48.1 µg/mL,COc1ccc(-c2ccc(CCC(=O)O)n2Cc2ccco2)cc1
14,> 50.3 µg/mL,O=C(O)c1ccccc1-c1ccccc1C(=O)Nc1ccc(F)cc1
15,44.8 µg/mL,COc1ccc(C(=O)OCC(=O)NC2CCCC2)c(OC)c1
16,29 µg/mL,Cc1ccc(NC(=O)N2CCCc3ccccc32)cc1C
17,31.8 µg/mL,CC(C(=O)Nc1cccc(C#N)c1)N(C)CCOc1ccccc1 (configuration not stated)
18,> 41 µg/mL,O=C(c1c(F)cccc1F)N1CCCc2ccccc21
19,> 39.5 µg/mL,N#Cc1ccc(-c2nc3ccccc3c(=O)n2O)cc1
20,3.4 µg/mL,O=C1C2C3C=CC(CC3)C2C(=O)N1c1ccc([N+](=O)[O-])cc1 (configuration not stated)

row,solubility kinetic,Structure (SMILES)
1,> 51.2 µg/mL,O=C(CN1C(=O)c2ccccc2C1=O)Nc1cc([N+](=O)[O-])ccc1O
2,> 39.8 µg/mL,Nc1ccccc1SCC(=O)Nc1nccs1
3,45.6 µg/mL,CCC(=O)N(CCC(c1ccc(C)cc1)c1ccco1)Cc1ccco1 (configuration not stated)
4,6.9 µg/mL,O=C(CCC(=O)N1CCN(S(=O)(=O)c2ccccc2)CC1)c1ccc(Br)cc1
5,> 40.5 µg/mL,Cc1ccccc1NC(=O)COC(=O)c1cccnc1
6,48.2 µg/mL,Cc1ncc(CN2CCC(CO)(CCOc3ccccc3)CC2)s1
7,> 50.4 µg/mL,O=C(Nc1sc2c(c1C(=O)O)CCCC2)c1ccccc1Cl
8,> 58.6 µg/mL,NS(=O)(=O)c1cccc(NC(=O)CSc2nnc(-c3ccccc3)o2)c1
9,< 0.3 µg/mL,COc1ccc(NC(=S)NC(=O)/C=C/c2ccccc2)cc1
10,2.9 µg/mL,NC(=O)c1ccccc1NCC(=O)c1ccc(Cl)cc1
11,> 30.3 µg/mL,COC(=O)c1ccc(-c2ncc[nH]2)cc1
12,> 46.2 µg/mL,Cc1ccc2[nH]c(C(=O)NCCN3CCCC3)cc2c1.Cl
13,48.7 µg/mL,O=C1CSC(c2cccnc2)N1Cc1ccc(Cl)c(Cl)c1 (configuration not stated)
14,> 42.2 µg/mL,CC(Oc1ccccc1)C(=O)N1CCc2ccccc2C1 (configuration not stated)
15,28.6 µg/mL,Cc1ccsc1C(=O)OC(C)C(=O)Nc1ccc(Cl)cn1 (configuration not stated)
16,> 51.8 µg/mL,CN(C(=O)CN1C(=O)c2ccc([N+](=O)[O-])cc2C1=O)C1CCCCC1
17,0.5 µg/mL,Cc1cccc(NC(=O)c2ccccc2NC(=O)c2ccco2)c1
18,41.9 µg/mL,Cc1cccc(NC(=O)COc2cccc3c2CCN(C)C3=O)c1
19,> 44.9 µg/mL,COc1ccc(CCC(=O)NCc2ccccc2OC)cc1
